Patent US10952433B2, “Solutions for enhancing the effectiveness of insecticides and fungicides on living plants and related methods” (priority 2015, dated 2021)
Like-named read-outs stand apart in the source and are kept apart here.

Legend:
[1] = tested on: Gypsy Moth Catepillar; assay: Gypsy moth caterpillar damage to white oak seedlings after hand spray (Table 5); format: in vivo, gypsy moth (on white oak seedlings)
Procedure: The particular solutions tested were applied to a stem of the white oak seedling using a low volume hand spray and spraying 20 milliliters per seedling. A total of 20 seedlings were tested. […] At permethrin concentration of 50 ppm, the damage after one month was 30% and with 100 ppm used alone, the damage was 0. When buffered amine oxide system No. 3 was employed in concentrations of 400:1 with 10 ppm of the insecticide, the gypsy moth caterpillar damage was 10% and when a concentration of 200:1 was employed with 10 ppm insecticide, the damage was 0.

[2] = tested on: lepidopteran larvae: cabbage loopers (Trichoplusia ni) and beet armyworms (Spodoptera exigua); format: in vivo; conditions: leaf discs
Method in brief: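 Romaine lettuce leaf discs (⅝ inch) dipped about one second in treatment solution and infested with four cabbage loopers and four beet armyworms (3rd-4th instar) per container. Held dark at 15 °C, 80% RH; percent disc-area damage scored visually in 5% increments at 24, 48 and 72 h.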

[3] = tested on: lepidopteran larvae: cabbage loopers (Trichoplusia ni) and beet armyworms (Spodoptera exigua); format: in vivo; conditions: plants
Method in brief: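 Romaine lettuce plants 2-3 inches tall were sprayed with 10 mL of insecticide (ppm) with buffer, amine oxide or buffered amine oxide at 200:1, then infested with 15 T. ni and 15 S. exigua larvae (5th-6th instar) per container. Leaf surface damage scored visually in 5% increments after 24 h.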

[4] = insecticide + CO3 buffer 200:1, no amine oxide, PPM: Chlorantranilopril 60, Acephate 70, Methoxyfenozide 100, Spinosad 30, Permethrin 10, Indoxacarb 50
[5] = insecticide + PO4 buffer 200:1, no amine oxide, PPM: Chlorantranilopril 60, Acephate 70, Methoxyfenozide 100, Spinosad 30, Permethrin 10, Indoxacarb 50
[6] = insecticide + amine oxide 12, no buffer, 200:1, PPM: Chlorantranilopril 60, Acephate 70, Methoxyfenozide 100, Spinosad 30, Permethrin 10, Indoxacarb 50
[7] = insecticide + amine oxide 1218, no buffer, 200:1, PPM: Chlorantranilopril 60, Acephate 70, Methoxyfenozide 100, Spinosad 30, Permethrin 10, Indoxacarb 50
[8] = insecticide + buffered amine oxide system CO3, 12, 200:1, PPM: Chlorantranilopril 60, Acephate 70, Methoxyfenozide 100, Spinosad 30, Permethrin 10, Indoxacarb 50
[9] = insecticide + buffered amine oxide system CO3, 1218, 200:1, PPM: Chlorantranilopril 60, Acephate 70, Methoxyfenozide 100, Spinosad 30, Permethrin 10, Indoxacarb 50
[10] = insecticide + buffered amine oxide system PO4, 12, 200:1, PPM: Chlorantranilopril 60, Acephate 70, Methoxyfenozide 100, Spinosad 30, Permethrin 10, Indoxacarb 50
[11] = insecticide + buffered amine oxide system PO4, 1218, 200:1, PPM: Chlorantranilopril 60, Acephate 70, Methoxyfenozide 100, Spinosad 30, Permethrin 10, Indoxacarb 50
[12] = insecticide alone, highest, PPM: Chlorantranilopril 120, Acephate 140, Methoxyfenozide 200, Spinosad 60, Permethrin 20, Indoxacarb 100
[13] = insecticide alone, increased, PPM: Chlorantranilopril 90, Acephate 105, Methoxyfenozide 150, Spinosad 45, Permethrin 15, Indoxacarb 75
[14] = insecticide alone, PPM: Chlorantranilopril 60, Acephate 70, Methoxyfenozide 100, Spinosad 30, Permethrin 10, Indoxacarb 50

Structure (SMILES): CC1(C)C(C=C(Cl)Cl)C1C(=O)OCc1cccc(Oc2ccccc2)c1 (stereo not drawn) [Permethrin]
- Percent Gypsy Moth Catepillar Damage to White Oak 1 Month After Application ([1]; Permethrin 10 PPM + buffered amine oxide system 3, amine oxide 12, 200:1): 0%
- Percent Gypsy Moth Catepillar Damage to White Oak 1 Month After Application ([1]; Permethrin 10 PPM + buffered amine oxide system 3, amine oxide 12, 400:1): 10%
- Percent Gypsy Moth Catepillar Damage to White Oak 1 Month After Application ([1]; Permethrin 10 PPM + buffered amine oxide system 4, amine oxide 12, 200:1): 0%
- Percent Gypsy Moth Catepillar Damage to White Oak 1 Month After Application ([1]; Permethrin 10 PPM + buffered amine oxide system 4, amine oxide 12, 400:1): 10%
- Percent Gypsy Moth Catepillar Damage to White Oak 1 Month After Application ([1]; Permethrin 10 PPM alone): 80%
- Percent Gypsy Moth Catepillar Damage to White Oak 1 Month After Application ([1]; Permethrin 50 PPM alone): 30%
- Percent Gypsy Moth Catepillar Damage to White Oak 1 Month After Application ([1]; Permethrin 100 PPM alone): 0%
- Percent Lepidopteran Damage to Romaine Lettuce 24 hr [2, 4]: 53.5%
- Percent Lepidopteran Damage to Romaine Lettuce 24 hr [2, 5]: 28.5%
- Percent Lepidopteran Damage to Romaine Lettuce 24 hr [2, 6]: 17.0%
- Percent Lepidopteran Damage to Romaine Lettuce 24 hr [2, 7]: 24.0%
- Percent Lepidopteran Damage to Romaine Lettuce 24 hr [2, 8]: 23.5%
- Percent Lepidopteran Damage to Romaine Lettuce 24 hr [2, 9]: 2.0%
- Percent Lepidopteran Damage to Romaine Lettuce 24 hr [2, 10]: 3.0%
- Percent Lepidopteran Damage to Romaine Lettuce 24 hr [2, 11]: 1.5%
- Percent Lepidopteran Damage to Romaine Lettuce 24 hr [2, 12]: 1.5%
- Percent Lepidopteran Damage to Romaine Lettuce 24 hr [2, 13]: 0.0%
- Percent Lepidopteran Damage to Romaine Lettuce 24 hr [2, 14]: 85.5%
- Percent Lepidopteran Damage to Romaine Lettuce 48 hr [2, 4]: 97.5%
- Percent Lepidopteran Damage to Romaine Lettuce 48 hr [2, 5]: 79.0%
- Percent Lepidopteran Damage to Romaine Lettuce 48 hr [2, 6]: 60.0%
- Percent Lepidopteran Damage to Romaine Lettuce 48 hr [2, 7]: 95.0%
- Percent Lepidopteran Damage to Romaine Lettuce 48 hr [2, 8]: 67.0%
- Percent Lepidopteran Damage to Romaine Lettuce 48 hr [2, 9]: 4.5%
- Percent Lepidopteran Damage to Romaine Lettuce 48 hr [2, 10]: 10.5%
- Percent Lepidopteran Damage to Romaine Lettuce 48 hr [2, 11]: 3.0%
- Percent Lepidopteran Damage to Romaine Lettuce 48 hr [2, 12]: 4.0%
- Percent Lepidopteran Damage to Romaine Lettuce 48 hr [2, 13]: 0.5%
- Percent Lepidopteran Damage to Romaine Lettuce 48 hr [2, 14]: 100.0%
- Percent Lepidopteran Damage to Romaine Lettuce 72 hr [2, 4]: 100.0%
- Percent Lepidopteran Damage to Romaine Lettuce 72 hr [2, 5]: 100.0%
- Percent Lepidopteran Damage to Romaine Lettuce 72 hr [2, 6]: 89.0%
- Percent Lepidopteran Damage to Romaine Lettuce 72 hr [2, 7]: 100.0%
- Percent Lepidopteran Damage to Romaine Lettuce 72 hr [2, 8]: 91.0%
- Percent Lepidopteran Damage to Romaine Lettuce 72 hr [2, 9]: 5.0%
- Percent Lepidopteran Damage to Romaine Lettuce 72 hr [2, 10]: 21.0%
- Percent Lepidopteran Damage to Romaine Lettuce 72 hr [2, 11]: 3.0%
- Percent Lepidopteran Damage to Romaine Lettuce 72 hr [2, 12]: 4.5%
- Percent Lepidopteran Damage to Romaine Lettuce 72 hr [2, 13]: 0.5%
- Percent Lepidopteran Damage to Romaine Lettuce 72 hr [2, 14]: 100.0%
- Percent Lepidopteran Damage to Romaine Lettuce 24 hr [3, 4]: 80.5%
- Percent Lepidopteran Damage to Romaine Lettuce 24 hr [3, 5]: 83.0%
- Percent Lepidopteran Damage to Romaine Lettuce 24 hr [3, 6]: 77.5%
- Percent Lepidopteran Damage to Romaine Lettuce 24 hr [3, 7]: 72.0%
- Percent Lepidopteran Damage to Romaine Lettuce 24 hr [3, 8]: 22.5%
- Percent Lepidopteran Damage to Romaine Lettuce 24 hr [3, 9]: 28.0%
- Percent Lepidopteran Damage to Romaine Lettuce 24 hr [3, 10]: 24.0%
- Percent Lepidopteran Damage to Romaine Lettuce 24 hr [3, 11]: 21.0%
- Percent Lepidopteran Damage to Romaine Lettuce 24 hr [3, 12]: 90.0%
- Percent Lepidopteran Damage to Romaine Lettuce 24 hr [3, 13]: 78.0%
- Percent Lepidopteran Damage to Romaine Lettuce 24 hr [3, 14]: 77.0%
